Laboratory results reported in PubChem BioAssay AID1918945 (Molecular Pharmacology Branch, DTP, NCI, 2023).

Tested on: 883617-216-R-J1-PDC complex spheroid viability
Assay: Anticancer human tumor 883617-216-R-J1-PDC patient-derived bladder carcinoma cell line growth inhibition
Details: for IC50: curve of first compound; for viability, T/C: stronger effect = lower value
Outline: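 Drug combinations with the LSD1 inhibitor iadademstat tested on tumor cells co-cultured as spheroids with endothelial cells and mesenchymal stem cells. Concentrations descended in half-log increments from clinical Cmax or 10 microM.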

[1] = second compound 0.1 µM, first compound 0.0316 µM
[2] = second compound 0.1 µM, first compound 0.1 µM
[3] = second compound 0.1 µM, first compound 0.316 µM
[4] = second compound 0.1 µM, first compound 1 µM
[5] = second compound 0.1 µM, first compound 3.16 µM
[6] = second compound 0.1 µM, first compound 10 µM
[7] = second compound 0.316 µM, first compound 0.0316 µM
[8] = second compound 0.316 µM, first compound 0.1 µM
[9] = second compound 0.316 µM, first compound 0.316 µM
[10] = second compound 0.316 µM, first compound 1 µM
[11] = second compound 0.316 µM, first compound 3.16 µM
[12] = second compound 0.316 µM, first compound 10 µM
[13] = second compound 1 µM, first compound 0.0316 µM
[14] = second compound 1 µM, first compound 0.1 µM
[15] = second compound 1 µM, first compound 0.316 µM
[16] = second compound 1 µM, first compound 1 µM
[17] = second compound 1 µM, first compound 3.16 µM
[18] = second compound 1 µM, first compound 10 µM
[19] = second compound 3.16 µM, first compound 0.0316 µM
[20] = second compound 3.16 µM, first compound 0.1 µM
[21] = second compound 3.16 µM, first compound 0.316 µM
[22] = second compound 3.16 µM, first compound 1 µM
[23] = second compound 3.16 µM, first compound 3.16 µM
[24] = second compound 3.16 µM, first compound 10 µM
[25] = second compound 10 µM, first compound 0.0316 µM
[26] = second compound 10 µM, first compound 0.1 µM
[27] = second compound 10 µM, first compound 0.316 µM
[28] = second compound 10 µM, first compound 1 µM
[29] = second compound 10 µM, first compound 3.16 µM
[30] = second compound 10 µM, first compound 10 µM
[31] = second compound 0.1 µM, first compound 0.00949 µM
[32] = second compound 0.1 µM, first compound 0.03 µM
[33] = second compound 0.1 µM, first compound 0.0949 µM
[34] = second compound 0.1 µM, first compound 0.3 µM
[35] = second compound 0.316 µM, first compound 0.00949 µM
[36] = second compound 0.316 µM, first compound 0.03 µM
[37] = second compound 0.316 µM, first compound 0.0949 µM
[38] = second compound 0.316 µM, first compound 0.3 µM
[39] = second compound 1 µM, first compound 0.00949 µM
[40] = second compound 1 µM, first compound 0.03 µM
[41] = second compound 1 µM, first compound 0.0949 µM
[42] = second compound 1 µM, first compound 0.3 µM
[43] = second compound 3.16 µM, first compound 0.00949 µM
[44] = second compound 3.16 µM, first compound 0.03 µM
[45] = second compound 3.16 µM, first compound 0.0949 µM
[46] = second compound 3.16 µM, first compound 0.3 µM
[47] = second compound 10 µM, first compound 0.00949 µM
[48] = second compound 10 µM, first compound 0.03 µM
[49] = second compound 10 µM, first compound 0.0949 µM
[50] = second compound 10 µM, first compound 0.3 µM
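Also: exposure lasted seven days after three days of spheroid growth.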
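For viability, T/C in this document: 100% = DMSO vehicle control luminescence.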

CC1(C)CCC(CN2CCN(c3ccc(C(=O)NS(=O)(=O)c4ccc(NCC5CCOCC5)c([N+](=O)[O-])c4)c(Oc4cnc5[nH]ccc5c4)c3)CC2)=C(c2ccc(Cl)cc2)C1 + NC1CC1c1ccc(-c2cccc(O)c2)cc1
IC50 (second compound 0.1 µM): 7410 nM
IC50 (second compound 0.316 µM): 7200 nM
IC50 (second compound 1 µM): 6430 nM
IC50 (second compound 3.16 µM): 6410 nM
IC50 (second compound 10 µM): 4920 nM
viability, T/C [1]: 115%
viability, T/C [2]: 116%
viability, T/C [3]: 125%
viability, T/C [4]: 129%
viability, T/C [5]: 117%
viability, T/C [6]: 26.2%
viability, T/C [7]: 128%
viability, T/C [8]: 130%
viability, T/C [9]: 131%
viability, T/C [10]: 129%
viability, T/C [11]: 118%
viability, T/C [12]: 23%
viability, T/C [13]: 115%
viability, T/C [14]: 121%
viability, T/C [15]: 111%
viability, T/C [16]: 121%
viability, T/C [17]: 102%
viability, T/C [18]: 17.4%
viability, T/C [19]: 124%
viability, T/C [20]: 109%
viability, T/C [21]: 106%
viability, T/C [22]: 115%
viability, T/C [23]: 107%
viability, T/C [24]: 14%
viability, T/C [25]: 90.9%
viability, T/C [26]: 96.8%
viability, T/C [27]: 79.6%
viability, T/C [28]: 83.1%
viability, T/C [29]: 75.5%
viability, T/C [30]: 11.2%

CC1COCCN1c1cc(C2(S(C)(=N)=O)CC2)nc(-c2ccnc3[nH]ccc23)n1 (stereo not given) + NC1CC1c1ccc(-c2cccc(O)c2)cc1
IC50 (second compound 0.1 µM): 357 nM
IC50 (second compound 0.316 µM): 435 nM
IC50 (second compound 1 µM): 501 nM
IC50 (second compound 3.16 µM): 259 nM
IC50 (second compound 10 µM): 152 nM
viability, T/C [1]: 97.8%
viability, T/C [2]: 78.5%
viability, T/C [3]: 51.9%
viability, T/C [4]: 35%
viability, T/C [5]: 28.9%
viability, T/C [6]: 27.7%
viability, T/C [7]: 112%
viability, T/C [8]: 76.6%
viability, T/C [9]: 55%
viability, T/C [10]: 38.2%
viability, T/C [11]: 31.8%
viability, T/C [12]: 25.2%
viability, T/C [13]: 101%
viability, T/C [14]: 77.4%
viability, T/C [15]: 55.3%
viability, T/C [16]: 41.5%
viability, T/C [17]: 29.1%
viability, T/C [18]: 22.4%
viability, T/C [19]: 88.5%
viability, T/C [20]: 65.3%
viability, T/C [21]: 46.1%
viability, T/C [22]: 35%
viability, T/C [23]: 31.5%
viability, T/C [24]: 24.6%
viability, T/C [25]: 81%
viability, T/C [26]: 58.4%
viability, T/C [27]: 34.6%
viability, T/C [28]: 29.3%
viability, T/C [29]: 25.8%
viability, T/C [30]: 22.8%

CCN(c1cc(-c2ccc(CN3CCOCC3)cc2)cc(C(=O)NCc2c(C)cc(C)[nH]c2=O)c1C)C1CCOCC1 + NC1CC1c1ccc(-c2cccc(O)c2)cc1
IC50 (second compound 0.1 µM): > 3000 nM
IC50 (second compound 0.316 µM): > 3000 nM
IC50 (second compound 1 µM): > 3000 nM
IC50 (second compound 3.16 µM): > 3000 nM
IC50 (second compound 10 µM): > 3000 nM
viability, T/C [31]: 86.5%
viability, T/C [32]: 84.8%
viability, T/C [33]: 81.9%
viability, T/C [34]: 73.5%
viability, T/C (second compound 0.1 µM, first compound 0.949 µM): 79.4%
viability, T/C (second compound 0.1 µM, first compound 3 µM): 66.9%
viability, T/C [35]: 96.8%
viability, T/C [36]: 92.2%
viability, T/C [37]: 83.4%
viability, T/C [38]: 89.9%
viability, T/C (second compound 0.316 µM, first compound 0.949 µM): 86%
viability, T/C (second compound 0.316 µM, first compound 3 µM): 70%
viability, T/C [39]: 105%
viability, T/C [40]: 93%
viability, T/C [41]: 88.2%
viability, T/C [42]: 91.5%
viability, T/C (second compound 1 µM, first compound 0.949 µM): 88.6%
viability, T/C (second compound 1 µM, first compound 3 µM): 79.2%
viability, T/C [43]: 99.7%
viability, T/C [44]: 83.3%
viability, T/C [45]: 73.8%
viability, T/C [46]: 83.2%
viability, T/C (second compound 3.16 µM, first compound 0.949 µM): 88.6%
viability, T/C (second compound 3.16 µM, first compound 3 µM): 78.5%
viability, T/C [47]: 78.4%
viability, T/C [48]: 72.9%
viability, T/C [49]: 69.2%
viability, T/C [50]: 63%
viability, T/C (second compound 10 µM, first compound 0.949 µM): 71.1%
viability, T/C (second compound 10 µM, first compound 3 µM): 61.1%

Cn1ncnc1C1c2n[nH]c(=O)c3cc(F)cc(c23)NC1c1ccc(F)cc1 (stereo not given) + NC1CC1c1ccc(-c2cccc(O)c2)cc1
IC50 (second compound 0.1 µM): 15.1 nM
IC50 (second compound 0.316 µM): 16.2 nM
IC50 (second compound 1 µM): 12.4 nM
IC50 (second compound 3.16 µM): 8.5 nM
IC50 (second compound 10 µM): 6.41 nM
viability, T/C (second compound 0.1 µM, first compound 0.000316 µM): 105%
viability, T/C (second compound 0.1 µM, first compound 0.001 µM): 95.4%
viability, T/C (second compound 0.1 µM, first compound 0.00316 µM): 76.4%
viability, T/C (second compound 0.1 µM, first compound 0.01 µM): 53%
viability, T/C [1]: 44.1%
viability, T/C [2]: 37.8%
viability, T/C (second compound 0.316 µM, first compound 0.000316 µM): 116%
viability, T/C (second compound 0.316 µM, first compound 0.001 µM): 103%
viability, T/C (second compound 0.316 µM, first compound 0.00316 µM): 73%
viability, T/C (second compound 0.316 µM, first compound 0.01 µM): 54.3%
viability, T/C [7]: 47.1%
viability, T/C [8]: 40.8%
viability, T/C (second compound 1 µM, first compound 0.000316 µM): 118%
viability, T/C (second compound 1 µM, first compound 0.001 µM): 88.9%
viability, T/C (second compound 1 µM, first compound 0.00316 µM): 68.6%
viability, T/C (second compound 1 µM, first compound 0.01 µM): 50.2%
viability, T/C [13]: 43%
viability, T/C [14]: 37.8%
viability, T/C (second compound 3.16 µM, first compound 0.000316 µM): 92.4%
viability, T/C (second compound 3.16 µM, first compound 0.001 µM): 93%
viability, T/C (second compound 3.16 µM, first compound 0.00316 µM): 62.6%
viability, T/C (second compound 3.16 µM, first compound 0.01 µM): 50.4%
viability, T/C [19]: 42.2%
viability, T/C [20]: 33.9%
viability, T/C (second compound 10 µM, first compound 0.000316 µM): 83.5%
viability, T/C (second compound 10 µM, first compound 0.001 µM): 64.2%
viability, T/C (second compound 10 µM, first compound 0.00316 µM): 58.1%
viability, T/C (second compound 10 µM, first compound 0.01 µM): 44.9%
viability, T/C [25]: 40.9%
viability, T/C [26]: 32.3%

Nc1ncn(C2CC(O)C(CO)S2)c(=O)n1 (stereo not given) + NC1CC1c1ccc(-c2cccc(O)c2)cc1
IC50 (second compound 0.1 µM): 27.6 nM
IC50 (second compound 0.316 µM): 40.7 nM
IC50 (second compound 1 µM): 33.9 nM
IC50 (second compound 3.16 µM): 24.5 nM
IC50 (second compound 10 µM): 18.5 nM
viability, T/C (second compound 0.1 µM, first compound 0.000949 µM): 115%
viability, T/C (second compound 0.1 µM, first compound 0.003 µM): 97.1%
viability, T/C [31]: 67.2%
viability, T/C [32]: 49.5%
viability, T/C [33]: 37.6%
viability, T/C [34]: 29.5%
viability, T/C (second compound 0.316 µM, first compound 0.000949 µM): 119%
viability, T/C (second compound 0.316 µM, first compound 0.003 µM): 89.5%
viability, T/C [35]: 77.9%
viability, T/C [36]: 51.3%
viability, T/C [37]: 38.1%
viability, T/C [38]: 30.5%
viability, T/C (second compound 1 µM, first compound 0.000949 µM): 106%
viability, T/C (second compound 1 µM, first compound 0.003 µM): 101%
viability, T/C [39]: 64%
viability, T/C [40]: 57.5%
viability, T/C [41]: 36%
viability, T/C [42]: 29.4%
viability, T/C (second compound 3.16 µM, first compound 0.000949 µM): 92.8%
viability, T/C (second compound 3.16 µM, first compound 0.003 µM): 95.8%
viability, T/C [43]: 64.2%
viability, T/C [44]: 47.1%
viability, T/C [45]: 38.7%
viability, T/C [46]: 26.3%
viability, T/C (second compound 10 µM, first compound 0.000949 µM): 78.4%
viability, T/C (second compound 10 µM, first compound 0.003 µM): 76.7%
viability, T/C [47]: 56.7%
viability, T/C [48]: 45%
viability, T/C [49]: 36.6%
viability, T/C [50]: 33.1%
